US20110245316A1, “PREVENTION OR DELAY OF ONSET OF ORAL MUCOSITIS” (SCICLONE PHARMACEUTICALS, INC., priority 2010, published 2011)

Tested on: human head and neck cancer (HNC) lines
Assay: Xenograft studies: CRT anti-tumor response
Format: in vivo

Question: With `N[C@H](CCC(=O)N[C@@H](Cc1c[nH]c2ccccc12)C(=O)O)C(=O)O` [SCV-07, γ-D-glutamyl-L-tryptophan] as the compound, how does the “impact on CRT anti-tumor response” value read?
Answer: The value was “did not impact CRT anti-tumor response”.
